pIC50: −log10 of the molar value. Counter-ions that a name gives are not always drawn.
What was measured:
SK-MEL-28 cells = test: Cytotoxicity in low glucose condition (MTT); type: cell-based; details: Homo sapiens, SK-MEL-28, 0.75 mM glucose, 72 hours, read-out: SK-MEL-28 0.75 mM glucose Cell viability (IC50 ia)
Text: The inhibition of oxidative phosphorylation (OXPHOS) is not cytotoxic to cells in normal glucose condition, because it is postulated that normal cells have compensatory mechanism under energy stress conditions such as low glucose. However OXPHOS inhibitors show cytotoxic effect on cells in the glucose deprived condition (BirsoyK, 2014). The glucose deprived condition is observed in tumor microenvironment potentially due to poor angiogenesis. Therefore the OXPHOS inhibitors may show anti-cancer effect on cancer cells in low glucose condition that may depict tumor microenvironment.
The compounds of the present invention were evaluated their cytotoxicity in SK-MEL-28, melanoma with 0.75 mM glucose supplement. The cytotoxic effect is compared with the cytotoxicity caused by phenformin. The cytotoxicity in low glucose condition is correlated with inhibition of oxygen consumption in mitochondria.
SK-MEL-28 (HTB-72) is a melanoma cell line obtained from ATCC (MA) and cultured in RPMI 1640 media (Lifetechnologies, CA) with supplement of 10% FBS and antibiotic-antimycotic (Lifetechnologies, CA). RPMI 1640 (-Glucose) was used to prepare low glucose media and 0.75 mM glucose was supplied with D-(+)-glucose solution from Sigma. SK-MEL-28 cells were separated from culture plate using 0.5% trypsin-EDTA and 5,000 cells were plated in 96-well plate with low glucose media. After incubation at 37° C. for 24 hour, 5% CO2, the cells were treated with the compounds of present invention in FBS-free media for 72 hours. The cytotoxicity was measured by the MTT (AMRESCO, OH) assay. NADH-dependent cellular oxidoreductase reduces MTT to its insoluble […] with purple color. The enzyme depends on cell number or energy state of cells. 10 μl of 5 mg/ml MIT solution was added to each well of the assay plate and skip the well for blank. The plate was incubated at 37° C. and 5% CO2 for 2 hours. The MTT solution was removed from each well and 100 μl of DMSO was added. The plate was read by VICTOR X3 Multilabel Counter at the wavelength of 550 nm. In Table 2, the levels of IC50 are evaluated by the following criteria.

A549 cells = test: Inhibition of OCR (XF Analyzer); type: cell-based; details: Homo sapiens, A549, 24 h
Text: The electron transfer complex in mitochondria is composed of 5 complexes. The complex I accept electrons from NADH produced from glycolysis and TCA cycle and the electrons move to complex […] and the electron is finally transferred to O2 and water molecule is generated. During the electron transfer, proton gradient is generated and the chemical gradient is a driving source to synthesize ATP at complex V. The mitochondrial inhibition of complex I indirectly assessed by measuring the oxygen consumption rate (OCR) at complex IV. […] The solution outside of cells becomes acidic (lower pH) as lactate is transported to outside of cells. OCR and Extracellular acidification rate (ECAR) are determined by XF Analyzer (Seahorse Biosciences).
A549 cells were purchased from American Type Tissue Culture Collection ([…]) and cultured in RPMI 1640 supplied with 10% fetal bovine serum (FBS) and antibiotic-antimycotic (Lifetech, CA). A549 cells were separated with 0.5% Trypsin-EDTA and 3,000 cells were plated on 1 mg/ml poly-D-lysine (Sigma, P6407) coated XF 96 well […]. A549 cells were allowed to adhere to the wells for 24 hours under the condition of temperature, 37° C. and 5% CO2 The sensor cartridge of XF Analyzer was soaked in 200 Ad of Calibrant solution (Seahorse, MA) in a clear 96-well plate at 37° C. for 24 hours. The compounds of the present invention were diluted with RPMI 1640 without FBS, transferred to A549 cells on XF 96 well plate, and incubated further for 23 hours at 37° C. and 5% CO2. After incubation, the compound solution was exchanged with pre-warmed and pH adjusted (pH7.4) XF assay media (Seahorse) supplied with 15 mM D-glucose (Sigma), 15 mM sodium pyruvate (Lifetechnologies, CA) and 4 mM L-glutamine (Lifetechnologies, CA). The compounds of present invention were prepared in XF Assay media and added to the assay plate. The assay plate was equilibrated in XF Analyzer for 1 hour, and the reading were started by sensor cartridge. The cytotoxicity assay was followed using Cyquant (Lifetechnologies, CA) in order to calibrate the inhibition with cytotoxicity of compounds. The concentrations of the compounds were tested at […] and IC50 value was obtained from the inhibited values. That is, from OCR inhibition values at each concentration of the compound, IC50 was calculated according to Prism's dose response curve fitting.
In Table 1, the levels of OCR IC50 are evaluated by the following.

pIC50 (A549 cells) | SMILES | pIC50 (SK-MEL-28 cells)
 | C/N=C(\NC)NC(=N)NCCc1ccc(Cl)c(Cl)c1 [Example 132, N-1-methyl-N-2-methyl-N-5-(3,4-dichloro)phenethylbiguanide hydrochloride] | < 5.00
 | CONC(=N)NC(=N)NCCc1ccc(Cl)c(Cl)c1 [Example 129, N-1-methoxy-N-5-(3,4-dichloro)phenethylbiguanide hydrochloride] | < 5.00
< 5.30 | N=C(N)NC(=N)NCCc1ccccc1F [Example 9, N-1-(2-fluoro)phenethylbiguanide hydrochloride] | 
< 5.30 | N=C(N)NC(=N)NCc1ccc(Oc2ccccc2)cc1 [Example 56, N-1-(4-phenoxy)benzylbiguanide hydrochloride] | 
5.30 to 5.70 | N=C(N)NC(=N)NCCc1ccc2c(c1)CCC2 [Example 66, N-1-2-(2,3-dihydro-1H-inden-5-yl)ethylbiguanide hydrochloride] | > 5.30
< 5.30 | Cc1cc(F)ccc1CCNC(=N)N [Example 169, 1-(4-fluoro-2-methylphenethyl)guanide hydrochloride] | < 5.00
< 5.30 | N=C(N)NC(=N)NCCc1ccc(I)cc1 [Example 71, N-1-(4-iodo)phenethylbiguanide hydrochloride] | < 5.00
5.30 to 5.70 | COc1cccc(CCNC(=N)NC(=N)N)c1 [Example 8, N-1-(3-methoxy)phenethylbiguanide hydrochloride] | 
5.30 to 5.70 | N=C(N)NCc1ccc(-c2ccccc2)cc1 [Example 200, N-(4-phenyl)benzyl guanide hydrochloride] | 
< 5.30 | CNC(=N)NC(=N)NCCc1ccc2c(c1)CCCC2 [Example 126, N-1-methyl-N-5-(2-(5,6,7,8-tetrahydronaphthalen-2-yl)ethyl) biguanide hydrochloride] | > 5.30
< 5.30 | CN(CCCc1ccccc1)C(=N)N [Example 188, 1-methyl-1-(3-phenylpropyl)guanide hydrochloride] | 
5.30 to 5.70 | N=C(N)NCc1ccc2ccccc2c1 [Example 198, 11-(naphthalen-2-ylmethyl)guanide hydrochloride] | 
> 5.70 | Cc1ccc(CCNC(=N)N)c(C)c1 [Example 155, 1-(2,4-dimethylphenethyl)guanide hydrochloride] | 
5.30 to 5.70 | N=C(N)NC(=N)NCCc1ccc(CCc2ccccc2)cc1 [Example 27, N-1-(4-phenethyl)phenethylbiguanide hydrochloride] | 
< 5.30 | Cc1cc(CNC(=N)N)ccc1Br [Example 207, 1-(4-bromo-3-methylbenzyl) guanide hydrochloride] | 
< 5.30 | CCCNC(=N)NC(=N)NCCc1ccc2c(c1)CCCC2 [Example 127, N-1-propyl-N-5-(2-(5,6,7,8-tetrahydronaphthalen-2-yl)ethyl) biguanide hydrochloride] | 
> 5.70 | Cc1cc(CCNC(=N)N)ccc1Cl [Example 206, 1-(4-chloro-3-methylphenthyl)guanide hydrochloride] | 
< 5.30 | N=C(N)NC(=N)NCc1cccc2ccccc12 [Example 31, hydrochloride] | 
< 5.30 | Cc1ccc(CCNC(=N)NC(=N)N)cc1 [Example 10, N-1-(4-methyl)phenethylbiguanide hydrochloride] | 
5.30 to 5.70 | N=C(N)NCCc1ccc(Cl)c(Cl)c1 [Example 140, 1-(3,4-dichlorophenethyl)guanide hydrochloride] | 
5.30 to 5.70 | N=C(N)NCc1ccc(Oc2ccccc2)cc1 [Example 203, 1-(4-phenoxybenzyl) guanide hydrochloride] | 
< 5.30 | C[C@H](CNC(=N)N)c1ccccc1 [Example 175, (S)-1-(2-phenylpropyl)guanide hydrochloride] | 

pIC50 (A549 cells) | SMILES | pIC50 (SK-MEL-28 cells)
5.30 to 5.70 | N=C(N)NCCCc1ccccc1 [Example 165, 1-(3-phenylpropyl)guanide hydrochloride] | 
< 5.30 | N=C(N)NCCc1ccc(CCc2ccccc2)cc1 [Example 187, 1-(4-phenethylphenethyl)guanide hydrochloride] | 
5.30 to 5.70 | Cc1ccc(CCNC(=N)N)cc1 [Example 138, 1-(4-methylphenethyl)guanide hydrochloride] | 
< 5.30 | N=C(N)NCCc1cccc(F)c1 [Example 178, 1-(3-fluorophenethyl)guanide hydrochloride] | 
< 5.30 | COc1ccc(CCCNC(=N)N)cc1 [Example 185, 1-(3-(4-methoxyphenyl)propyl)guanide hydrochloride] | 
< 5.30 | CC(C)c1ccc(CCNC(=N)NC(=N)N)cc1 [Example 14, N-1-(4-isopropyl)phenethylbiguanide hydrochloride] | 
< 5.30 | N=C(N)NC(=N)NCCCc1ccc(C2CC2)cc1 [Example 47, N-1-1-(3-(4-cyclopropylphenyl)propyl)biguanide hydrochloride] | 
5.30 to 5.70 | N=C(N)NCCc1cccc2c1CCCC2 [Example 192, hydrochloride] | 
5.30 to 5.70 | N=C(N)NC(=N)NCc1ccc2ccccc2c1 [Example 45, hydrochloride] | 
5.30 to 5.70 | N=C(N)NCCC1CC1 [Example 190, 1-(2-cyclopropylethyl)guanide hydrochloride] | 
< 5.30 | N=C(N)NC(=N)NCCC1CCCCC1 [Example 32, N-1-2-cyclohexylethylbiguanide hydrochloride] | 
5.30 to 5.70 | N=C(N)NC1Cc2ccccc2C1 [Example 137, 1-(2,3-dihydro-1H-inden-2-yl)guanide hydrochloride] | 
5.30 to 5.70 | Cc1ccc(CCNC(=N)NC(=N)N)c(C)c1 [Example 16, N-1-(2,4-dimethyl)phenethylbiguanide hydrochloride] | 
< 5.30 | N=C(N)NCc1ccc(Br)cc1 [Example 184, 1-(4-bromobenzyl)guanide hydrochloride] | 
5.30 to 5.70 | N=C(N)NC(=N)NCCc1ccc(Br)c(Cl)c1 [Example 73, N-1-(4-bromo-3-chloro)phenethylbiguanide hydrochloride] | 
5.30 to 5.70 | Cc1ccc(CNC(=N)NC(=N)N)cc1C [Example 28, N-1-(3,4-dimethyl)benzylbiguanide hydrochloride] | 
< 5.30 | Cc1ccc(CNC(=N)N)cc1 [Example 151, 1-(4-methylbenzyl)guanide hydrochloride] | 
< 5.30 | N=C(N)NC(=N)NCc1cccc(Cl)c1 [Example 41, N-1-(3-chloro)benzylbiguanide hydrochloride] | 
5.30 to 5.70 | N=C(N)NC(=N)NCCc1ccc(Cl)cc1Cl [Example 4, N-1-(2,4-dichloro)phenethylbiguanide hydrochloride] | 
< 5.30 | CN(CCc1ccc(F)cc1)C(=N)N [Example 174, 1-(4-fluorophenethyl)-1-methyl guanide hydrochloride] | 
 | CNC(=N)NC(=N)NCCc1ccccc1 [Example 124, N-1-methyl-N-5-phenethylbiguanide hydrochloride] | < 5.00

SMILES | pIC50 (A549 cells) | pIC50 (SK-MEL-28 cells)
N=C(N)NC(=N)NCCc1ccc2c(c1)CCCC2 [Example 44, N-1-2-(5,6,7,8-tetrahydronaphthalen-2-yl)ethylbiguanide hydrochloride] | 5.30 to 5.70 | > 5.30

Source: patent US11465989B2, “Guanidine compounds and use thereof” (IMMUNOMET THERAPEUTICS INC., priority 2014, dated 2022)
